From ChEMBL document CHEMBL3045212, “Synthesis of some imidazolyl-substituted 2-benzylidene indanone derivatives as potent aromatase inhibitors for breast cancer therapy” (Med Chem Res, 2011) come the findings set out here.

Data set [1] has as its target T1, Aromatase (Homo sapiens, UniProt P11511).
T1 sequence (P11511 whole entry): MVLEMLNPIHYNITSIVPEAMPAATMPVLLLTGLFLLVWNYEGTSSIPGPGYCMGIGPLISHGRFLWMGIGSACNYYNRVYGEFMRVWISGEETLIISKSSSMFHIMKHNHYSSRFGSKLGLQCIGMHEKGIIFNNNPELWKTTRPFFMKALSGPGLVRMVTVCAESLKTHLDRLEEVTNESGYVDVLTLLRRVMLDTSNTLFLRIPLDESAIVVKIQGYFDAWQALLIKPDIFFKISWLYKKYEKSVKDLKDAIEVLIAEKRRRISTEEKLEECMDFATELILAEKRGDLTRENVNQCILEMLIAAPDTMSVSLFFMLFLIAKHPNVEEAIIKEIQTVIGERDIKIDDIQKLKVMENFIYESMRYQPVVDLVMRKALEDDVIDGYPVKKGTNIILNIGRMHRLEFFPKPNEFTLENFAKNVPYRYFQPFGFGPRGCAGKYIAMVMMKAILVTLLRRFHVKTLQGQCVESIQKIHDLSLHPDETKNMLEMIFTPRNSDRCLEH
Put plainly: Inhibition of Homo sapiens (human) aromatase assessed as 3H2O formation using [1beta,2beta-3H]testosterone as substrate at 36 uM by liquid scintillation counting analysis.

The target of data set [2] is T1, Aromatase. Description: Ratio of aminoglutethimide IC50 to compound IC50 for Homo sapiens (human) aromatase.
Data set [3] has as its target T1, Aromatase. Description: Inhibition of Homo sapiens (human) aromatase assessed as 3H2O formation using [1beta,2beta-3H]testosterone as substrate by liquid scintillation counting analysis.

Take `COc1cc(/C=C2\Cc3ccccc3C2=O)ccc1OCCN(C)C`: in data set [1] (36 µM), the “inhibition (INH)” value was “Not Active”.

As usually defined, the inhibition is the relative decrease from the control value, in per cent. Take `O=C1/C(=C/c2c[nH]c3ccccc23)Cc2ccccc21`: the inhibition at 36 µM in data set [1] was determined as 6%.

On to `COc1cc(/C=C2\Cc3ccccc3C2=O)ccc1OCCCCl`, for which the inhibition at 36 µM in data set [1] was 8.5%.

In the case of `COc1ccc(/C=C2\Cc3ccccc3C2=O)cc1OCCCCl`, the inhibition at 36 µM in data set [1] turned out to be 8%.

As to `O=C1/C(=C/c2ccccc2OCCCCl)Cc2ccccc21`, in data set [1], the inhibition at 36 µM came out at 8%.

In the case of `O=C1/C(=C/c2cccc(OCCCCl)c2)Cc2ccccc21`, the inhibition at 36 µM in data set [1] was determined as 13%.

As to `COc1cc(/C=C2\Cc3ccccc3C2=O)ccc1OCCCn1ccnc1`, the “Ratio IC50” value in data set [2] is 54.1.

The term IC50 denotes the concentration needed to halve the response being measured. `COc1ccc(/C=C2\Cc3ccccc3C2=O)cc1OCCCn1ccnc1`: the “Ratio IC50” value in data set [2] is recorded as 22.5. Further, the IC50 in data set [3] came to 1340 nM.

Take `O=C1/C(=C/c2ccccc2OCCCn2ccnc2)Cc2ccccc21`: in data set [2], the “Ratio IC50” value is listed as 26.6. Besides, in data set [3], the IC50 was 1100 nM.

With `O=C1/C(=C/c2cccc(OCCCn3ccnc3)c2)Cc2ccccc21`, the “Ratio IC50” value in data set [2] was determined as 42.5. Also, in data set [3], the IC50 was found to be 700 nM.
